“Also recorded” adds a separate entry of the source. Residues, ends and D or L forms follow the SMILES beside them. *: point of attachment. Fluorescein(5-Mal) = O=C1OC2(c3ccc(O)cc3Oc3cc(O)ccc32)c2ccc(N3C(=O)CC(*)C3=O)cc21
How the values were obtained:
in vivo = settings: male, SKH, mouse, whole blood, iv, 100 nmol
Protocol: Five 8-week-old SKH male mice were injected intravenously with 100 nmol [10.75 mg/kg for 25 gm mouse] of FAM-HNP401 in 100 μl of sterile water. Prior to blood draw mice were anesthetized with a 1:1 cocktail of ketamine: midazolam. Tail pricks were performed at 1 min, 10 min, 20 min, 30 min, 1 hr, and 2 hrs after injection to collect 5 μl whole blood which was dissolved in 100 μl Agilent ICP-MS tuning buffer. Samples were centrifuged and equal volume of supernatants were analyzed using a Tecan fluorescence plate reader.

[1] = system: autonomic (cavernosal) nerves from human prostate gland; assay: Topical application on autonomic nerves from human prostate gland; assay type: binding; settings: 100 μM topical, two patients
Protocol: FAM-HNP401 and FAM-NP41 were then tested topically for binding to autonomic nerves, isolated from excised prostate glands of two human patients (FIGS. 12 and 13). […] Labelled fiber were confirmed as nerve using anti-neurofilament antibody SMI312 (red) and DAPI (blue) to show nuclear labeling (FIG. 12C). H&E staining was also done to confirm label tissue as nerve (FIG. 12D). Similar staining was obtained for peripheral sensory anti-brachial cutaneous nerve isolated from a human arm (FIGS. 12E-H).
FAM-HNP401 and FAM-NP41 were tested for binding to autonomic nerves, isolated from the prostate glands of two human patients (FIGS. 19 and 29). […] Quantitation was not done because only 2 patient samples were available for testing as nerve resection during radical prostatectomy is only performed in instances of gross capsular invasion. Labelled fibers were confirmed as nerve using anti-neurofilament antibody SMI312 (red) with DAPI (blue) to show nuclear labeling (FIG. 19C). H&E staining also confirmed label tissue as nerve by histology (FIG. 19D). […] Similar staining using FAM-HNP401 was obtained for another sensory nerve (anti-brachial cutaneous) isolated from human arm showing the broad nerve binding activity of HNP401 (FIGS. 19E-H).
Human sural nerve, antebrachial nerve and laryngeal nerve and temporalis muscle were obtained under IRB protocol number 130837 for Dr. Quyen Nguyen. […]

[2] = Mass spectroscopy analysis of urine after injection of nerve binding peptides
mouse facial nerve = assay: Topical application on ex-vivo mouse facial nerve with surrounding muscle; assay type: binding; settings: 375 and 100 μM topical
human sural nerve = assay: Topical application of FAM-labelled peptides on human nerve sections; assay type: binding
Description: To determine the affinity of phage selected peptides for binding to human nerve they were chemically synthesized by solid-phase synthesis and labeled with fluorescein at the C-terminus via a GGC linker. Peptides were topically applied to sectioned human sural nerve and human temporalis muscle to determine nerve to muscle contrast. […] To confirm binding and contrast of HNP401 for additional nerve types binding was compared in nerve and muscle with both HNP401 and NP41 on facial brachial plexus nerve (FIG. 9). […] FAM-HNP401 was additionally tested topically on ex-vivo tissue for labeling of mouse facial nerve with surrounding muscle (FIG. 10, J-M).
To test the affinity of selected phage display peptides for binding to human nerves, they were chemically synthesized by solid-phase synthesis and labeled with fluorescein at the C-terminus. Peptides were topically applied to sections of surgically harvested human sural nerve and temporalis muscle to determine nerve to muscle contrast for selected peptides and controls (FIG. 23). […] To quantify differential binding to nerve versus muscle, fluorescence signal intensity was measured for ROIs from the perineurium of select nerves and human temporalis muscle.
Human sural nerve, antebrachial nerve and laryngeal nerve and temporalis muscle were obtained under IRB protocol number 130837 for Dr. Quyen Nguyen. Human peripheral nerves (typically sural) were obtained from patients undergoing nerve resection procedures. Human nerves from prostate gland of two patients were acquired under Moores Cancer Centre Biorepository IRB protocol number 090401. Tissue were sectioned and mounted on glass slides or Cryojane tape. Tissue sections were placed in a humidifier chamber for 30 min before application of the peptide solution. Peptides were diluted to appropriate concentration in 0.5×HBSS prior to topical application. 50 μl of peptide solution of with known concentration (1 μM to 375 μM) were applied to 10 μm nerve sections on tape or slides and incubated for 30 minutes in a humidifier chamber. After incubation with peptide nerve sections were washed with twice with 0.5×HBSS and once with 1×PBS. A cover-slip was applied and slides were imaged immediately on either a Zeiss Lumar dissecting scope of Nikon A1 confocal microscope. For confocal imaging tissue sections of 10 μm thickness were imaged with 488 nm laser excitation 515 (25) and a 10× air objective and a […] size. For immunohistochemistry the confocal Images were acquired with a 20× air objective at 0.4 μm/pixel.
Image J was used to analyze and compare images acquired using the confocal microscope and the Lumar dissecting scope. For each experimental set where probes were compared, we kept the acquisition parameters identical so as to directly compare the data obtained. […] All raw image files for a given experimental cohort were loaded at the same time into Image J as 16-bit tiff images. We then levelled the image for tissue treated with FAM-HNP401. Once these levels were set, the settings are propagated to all images in one step using Image J. The brightest image is set as the benchmark for all other images in the cohort to avoid saturating when the leveling is propagated.

## CC(=O)N[C@@H](CO)C(=O)NCC(=O)N[C@@H](CCC(N)=O)C(=O)N[C@H](C(=O)N1CCC[C@H]1C(=O)N[C@@H](Cc1c[nH]c2ccccc12)C(=O)N[C@@H](CCC(=O)O)C(=O)N[C@@H](CCC(=O)O)C(=O)N1CCC[C@H]1C(=O)N[C@@H](Cc1ccc(O)cc1)C(=O)N[C@@H](Cc1ccc(O)cc1)C(=O)N[C@H](C(=O)N[C@H](C(=O)N[C@@H](CCCCN)C(=O)N[C@@H](CCCCN)C(=O)N[C@@H](CO)C(=O)N[C@@H](CO)C(=O)NCC(=O)NCC(=O)N[C@@H](CSC1CC(=O)N(c2ccc3c(c2)C(=O)OC32c3ccc(O)cc3Oc3cc(O)ccc32)C1=O)C(N)=O)C(C)C)C(C)C)C(C)C (stereo partly drawn) [FAM-HNP401] (Ac-SGQVPWEEPYYVVKKSSGGC(Fluorescein(5-Mal))-NH2; N-terminus and C-terminus assumed)
In vivo
  half-life: 30 min
[1]
  fluorescent signal in human autonomic nerves compared to FAM-NP41: significantly higher fluorescent signal
[2]
  metabolism (species detected in urine): partially metabolized
Mouse facial nerve
  labeling of mouse facial nerve versus surrounding muscle: poor contrast; also recorded: did not perform as well as FAM-NP41
Human sural nerve; 100 μM topical, human sural nerve
  fluorescent signal intensity compared to FAM-NP41: 10.9 ×
Human sural nerve; 100 μM topical, n=4
  fluorescent signal intensity (ROIs of perineurium): 1374.44±425.96
Human sural nerve; 100 μM topical, sural nerve and temporalis muscle
  binding / contrast among peptides and controls screened on human nerve: highest contrast
Human sural nerve; human sural nerve vs human temporalis muscle, 100 μM topical, n=4
  Nerve to muscle contrast: 3.03±0.57
Human sural nerve; topical, human nerve
  signal for binding human nerve compared to FAM-NP41: 10 fold

Reference: patent US11299515B2, “Optimized peptides for targeting human nerves and their use in image guided surgery, diagnostics and therapeutic” (The Regents of the University of California, priority 2017, dated 2022)
